Data taken from article PMC6437461, “Histone deacetylase inhibitory and cytotoxic activities of the constituents from the roots of three species of Ferula” (Iranian Journal of Basic Medical Sciences, 2019).
Where two headings read alike, the source gives them in different places.

Tests used:
HeLa cells = experiment: AlamarBlue cytotoxicity assay, HeLa; type: cell-based; conditions: Homo sapiens, 48 hr treatment
Description: (§1) Cervical (HeLa), ovarian (A2780), and lung (A549) cancer cells, obtained from Biotechnology Laboratory stocks, Biotechnology Research Center (Mashhad, Iran) and colon (HCT116) obtained from National Cell Bank of Iran (NCBI), Pasteur Institute of Iran, Tehran (Iran).
(§2) In vitro cytotoxicity tests were performed using a nonfluorescent substrate, AlamarBlue® (Paisely, UK) cell viability assay as described with some modifications (16). […] After counting, the cells were seeded in 96-well microplates (1 × 10^4 cells/100 µl in each well) and cultivated for 24 hr before addition of test compounds. Triplicate plates for three wells of each concentration were seeded. […] Thereafter, 10 μl of AlamarBlue® reagent was added and incubated for another 4 hr. Then, absorbance was measured at 600 nm using an ELISA microplate reader (Epoch; USA). IC50 values were calculated by nonlinear regression analysis using GraphPad prism (Version 6.0) software.

HCT116 cells = experiment: AlamarBlue cytotoxicity assay, HCT116; type: cell-based; conditions: Homo sapiens, HCT-116, 48 hr treatment
Description: as §1, §2

A2780 cells = experiment: AlamarBlue cytotoxicity assay, A2780; type: cell-based; conditions: Homo sapiens, 48 hr treatment
Description: as §1, §2

A549 cells = experiment: AlamarBlue cytotoxicity assay, A549; type: cell-based; conditions: Homo sapiens, 48 hr treatment
Description: as §1, §2

[1] = test system: human cancer cell lines (HeLa, HCT116, A2780 and A549); experiment: AlamarBlue cytotoxicity, summary over the four cancer cell lines; type: cell-based; conditions: collective range, read-out: Cytotoxic activity IC50 against cancer cells (range over cell lines and compounds)
Description: as §1, §2

pan-HDAC [2] = experiment: Whole-cell HDAC inhibition assay in HeLa cells; conditions: read-out: HDAC inhibition IC50 HeLa, 18 hr incubation, Boc-Lys(ε-Ac)-AMC substrate
Description: (§3) Three wells defined as 100% initial activity and three wells defined as background and three wells for each concentration were seeded. […] The test compounds, were dissolved in dimethyl sulfoxide (final concentrations of DMSO per well was 0.1% V/V) and their concentrations adjusted to 70, 40, 20, 5, 1 μM through dilution with the growth medium. The first step of reaction was started by adding 10 µl of 3 mM Boc-Lys (ε-Ac)-AMC (Bachem, Switzerland) to each well to reach a final concentration of 0.3 mM. Then, cells were incubated with the Boc-Lys (ε-Ac)-AMC for 3 hr under cell culture conditions. […] The final volume of the solution (210 µl per well) were transferred to the black 96-well microplate with flat clear bottom. We calculated fluorescence intensity at an excitation of 360 nm and emission of 470 nm in a NOVO star microplate reader (BMGLabTech, Germany).

pan-HDAC [3] = experiment: Whole-cell HDAC inhibition assay in HCT116 cells; conditions: read-out: HDAC inhibition IC50 HCT116, HCT116, 18 hr incubation, Boc-Lys(ε-Ac)-AMC substrate
Description: as §3

pan-HDAC [4] = experiment: Whole-cell pan-HDAC inhibition, summary over HeLa and HCT116; conditions: read-out: pan-HDAC inhibitory activity IC50 (range over HeLa and HCT116), collective range
Description: as §3

| IC50 (pan-HDAC [2]) [µM] | IC50 (pan-HDAC [3]) [µM] | IC50 (pan-HDAC [4]) [µM] | Compound | IC50 (HeLa cells) [µM] | IC50 (HCT116 cells) [µM] | IC50 (A2780 cells) [µM] | IC50 (A549 cells) [µM] | IC50 ([1]; Homo sapiens) [µM] | IC50 [1] [µM] |
| --- | --- | --- | --- | --- | --- | --- | --- | --- | --- |
| 35.27 ± 0.16 | 9.94 ± 1.89 | – | CC1=CC(OC2OC(CO)C(O)C(O)C2O)C2C(C)(C)C(=O)CC[C@@]2(C)[C@@H]1COc1ccc2ccc(=O)oc2c1 (some centres unmarked) [Conferoside (10), Conferoside] | 40 ± 7.99 | 35.3 ± 6.98 | 36.4 ± 12.3 | 45.8 ± 6.39 | 11.6 to 49.4 | – |
| 5.02 ± 0.29 | 19.9 ± 0.69 | – | CCC(C)SS/C=C\COC(=O)/C=C/c1ccc(O)c(OC)c1 (centres unmarked) [Latisulfide E (17), Latisulfide E] | 30.6 ± 14.9 | 57.1 ± 5.21 | 71.3 ± 6.52 | 69.7 ± 7.71 | – | – |
| 5.47 ± 0.89 | 4.41 ± 0.24 | – | CCC(C)SS/C=C/COC(=O)CC(C)(C)OC(C)=O (centres unmarked) [Persicasulfide A (2), Persicasulfide A] | 11.8 ± 11.6 | 11.6 ± 10.5 | 19.4 ± 7.29 | 15.3 ± 6.77 | 11.6 to 49.4 | – |
| 17.4 ± 0.5 | > 70 | – | CC1=CC(=O)C2C(C)(C)C(=O)CC[C@@]2(C)[C@@H]1COc1ccc2ccc(=O)oc2c1 (some centres unmarked) [Conferdione (9), Conferdione] | 41.7 ± 11.1 | 50.9 ± 5.19 | 38.8 ± 9.88 | 32.7 ± 7.96 | – | – |
| > 70 | > 70 | – | CCC(C)SS/C=C/COC(=O)CC(C)(C)O (centres unmarked) [Persicasulfide C (3), Persicasulfide C] | 64.8 ± 1.01 | > 100 | > 100 | > 100 | – | – |
| 10.7 ± 1.31 | 5.29 ± 0.22 | – | CC1=CC[C@@H]2C(C)(C)[C@H](O)CC[C@@]2(C)[C@@H]1COc1ccc2ccc(=O)oc2c1 [Feselol (7), Feselol] | 34.8 ± 7.94 | 28.4 ± 8.1 | 20.2 ± 9.68 | 25.5 ± 5.86 | 11.6 to 49.4 | – |
| 2.86 ± 1.4 | 26.44 ± 0.03 | – | CC1=CC(=O)[C@@H]2C(C)(C)[C@H](O)CC[C@@]2(C)[C@@H]1COc1ccc2ccc(=O)oc2c1 [Ligupersin A (8), Ligupersin A] | 22.9 ± 6.82 | 68.5 ± 7.41 | 39.5 ± 10.8 | 33.5 ± 9.58 | – | – |
| > 70 | 14.93 ± 0.08 | – | COc1cc(C(=O)OC2C3(C)CCC(C3)C2(C)C)ccc1O (centres unmarked) [Stylosin (19), Stylosin] | 54.8 ± 7.53 | 42.1 ± 6.1 | 25.5 ± 5.96 | – | – | – |
| > 70 | > 70 | – | CCC(C)SS/C=C\CO (centres unmarked) [Latisulfide D (16), Latisulfide D] | > 100 | > 100 | > 100 | > 100 | – | – |
| > 70 | 40.4 ± 1.09 | – | C=C1CCC(=O)C(C)(C)[C@H]1CC/C(C)=C/COc1ccc2ccc(=O)oc2c1 [Farnesiferone B (5), Farnesiferone B] | 71.6 ± 6.4 | 50.1 ± 6.29 | 78.9 ± 6.74 | 72.5 ± 4.83 | – | – |
| 10.6 ± 0.77 | 25.91 ± 0.14 | – | C/C=C(/C)C(=O)OC/C=C\SSC(C)CC (centres unmarked) [Latisulfide C (15), Latisulfide C] | 18.7 ± 8.5 | 47.2 ± 8.18 | 49.4 ± 6.2 | 47.9 ± 4.73 | 11.6 to 49.4 | – |
| > 70 | > 70 | – | CCC(C)SS/C=C\COC(C)=O (centres unmarked) [Latisulfide A (13), Latisulfide A] | 77.6 ± 3.43 | > 100 | > 100 | > 100 | – | – |
| > 70 | > 70 | – | C=C(C)C(=O)OC/C=C\SSC(C)CC (centres unmarked) [Latisulfide B (14), Latisulfide B] | > 100 | > 100 | > 100 | > 100 | – | – |
| > 70 | > 70 | – | CC(C)=CCC/C(C)=C/CC/C(C)=C/COc1ccc2ccc(=O)oc2c1 [Umbelliprenin (4), Umbelliprenin] | > 100 | > 100 | > 100 | > 100 | – | – |
| 1.17 ± 0.06 | 1.06 ± 0.15 | 1.06 to 1.17 | CC1=CCC2C(C)(C)C(=O)CC[C@@]2(C)[C@@H]1COc1ccc2ccc(=O)oc2c1 (some centres unmarked) [Conferone (6), Conferone] | 38.2 ± 7.8 | 31.8 ± 8.33 | 32.4 ± 9.83 | 39.2 ± 5.23 | – | < 50 |
